Data published in paper PMC7835894 (Molecules, 2021).

Test system: Caco-2
Experiment: MTT antiproliferation assay
Format: cell-based, human
Settings: Homo sapiens; Caco-2, MTT, 24 h, single agent, mean ± SEM
Method: The antiproliferation and cytotoxicity were assessed using 3-(4,5-dimethylthiazol-2-yl)-2,5-diphenyltetrazolium bromide (MTT, Serva) colorimetric assay. To investigate the antiproliferation, all cell lines were seeded at a density of 20,000 cells per well in 96-well plates and allowed to adhere overnight. […] These concentrations were prepared by diluting the stock solutions with serum-free culture media. The negative control cells were those treated with 0.1% DMSO solvent alone. The treated cells were handled in reduced light and maintained under standard culture growth conditions for 24 h. After the incubation period, MTT powder was prepared as a stock solution (5 mg/mL) and 20 μL of the MTT working reagent (final concentration 0.5 mg/mL) was added to each well. This was followed by incubation with MTT reagent for 4 h in a humidified atmosphere (37 °C, 5% CO2) with subsequent addition of 150 μL of DMSO solubilizing solvent and incubation for 20 min. The absorbance of solubilized violet formazan crystals was measured at 540 nm with Biotek 800 TS microplate reader. IC50 was calculated as the concentration of retinoid that produced 50% cell growth inhibition. For cytotoxicity assessment, WI-38 normal human fibroblast cells were used for the calculation of SI which is the ratio of IC50 retinoid (WI-38)/IC50 retinoid (cancer cell line).

O=c1[nH]cc(F)c(=O)[nH]1 [5-FU, 5-fluorouracil, reference compound] was tested, and the IC50 was 18.4 ± 0.6 µM.
